Reference: US20240239801A1, “PYRIMIDO[5,4,D]PYRIMIDINE COMPOUNDS, COMPOSITIONS COMPRISING THEM AND USES THEREOF” (Université de Montréal, priority 2021, published 2024)
Where two headings read alike, the source gives them in different places.

How the values were obtained:
HCT116 pERK = assay: Phospho-ERK inhibition, AlphaLISA SureFire Ultra p-ERK 1/2; assay type: cell-based, human; settings: for HCT116 (Ymin %): lowest value of the pERK IC50 curve
Experimental: (§1) All cancer cell lines (A375, A101D, A2058, RKO, HT29 SK-MEL 30, IPC298, HepG2, HCT-116, Lovo, SW620, SW480, NCI-H358, NCI-H2122, Calu-6, NCIH2087, NCIH1755, NCIH1666 and Mewo) were obtained from ATCC and cultured in RPMI-1640 medium (Gibco) supplemented with 5% heat inactivated fetal bovine serum (FBS, Wisent) at 37° C. under 5% CO2. Cells were maintained in T175 flasks (Greiner). They were passaged by removing the culture medium, washing once in 10 mL of room temperature Phosphate Buffered Saline (PBS; Wisent) and incubating at 37° C. with 2 mL of 0.05% Trypsin (Thermo-Fisher). Trypsin was then inactivated by adding complete growth medium and the cells were then replated in a T175 culture dish at the appropriate dilution. All cell lines were routinely tested for mycoplasma contamination. Tissue type and mutational status of each cell line can be found in Table B.
(§2) AlphaLISA® SureFire® Ultra™ p-ERK ½ (Thr202/Tyr204) analysis was conducted on cells plated in 100 μL of complete RPMI-1640 growth medium in 96-well flat-bottomed transparent dishes (Costar) at a density indicated in Table C. Cells were maintained overnight at 37° C. under 5% CO2 before treatment with compounds' dilution series for one hour. The cell density in cells/cm^2 corresponds to cell number divided by the area of one well of a 96-well plate ([…]).
(§3) In a dilution series 100 μL/well of test substance dilution prepared in complete RPMI-1640 growth media was added to the cells. The dilution series is selected so that ten concentrations cover a range from 30 μM or 10 μM to 0.33 nM. If necessary, the initial concentration of 10 μM is increased to 100 μM or lowered to 1 μM (as in the case of A375 and NCIH1666 cells, which are generally more sensitive to the compounds) and further dilution is carried out accordingly. The final concentration of DMSO in the assay is set at 0.5%.
(§4) After treatment, media was removed, and cells were lysed in 50 μL of 1× AlphaScreen Ultra Lysis Buffer (Perkin Elmer). The AlphaLISA® SureFire® Ultra™ p-ERK ½ (Thr202/Tyr2O4) (PerkinElmer) reactions were performed with 5 μL of cell lysate according to the manufacturer's specifications in 384-well proxyplates (Perkin Elmer) followed by overnight incubation of the reactions at room temperature in a humidified chamber. After completion of the reactions, the signals were recorded on an EnVision plate reader (Perkin Elmer) using built in AlphaLISA® settings.
(§5) The effect of each compound dilution on the pERK signal was expressed in % inhibition and calculated as follows. An internal 100% inhibition control (1 μM trametinib, cat. No. HY-10999; MedChem Express; CAS No. 871700-17-3) was included in each plate and used as a measure of pERK background. First, the value obtained for trametinib was subtracted from each data point. The average of DMSO (vehicle) controls (set as 0% inhibition) was established and used to calculate % inhibition:
(§6) The ability of each compound to inhibit pERK signal was expressed as an IC50 value obtained by plotting the inhibition values for each data point of a dilution series and fitting the obtained curves using a log(agonist) versus response−variable slope (four parameters) function using GraphPadPrism (V7.0).
(§7) When present, paradoxical pERK induction is inferred from the negative % inhibition values observed in the pERK IC50 curves of a compound.

SW480 pERK = assay: as above; assay type: cell-based, human; settings: for IC50: read-out: SW480 PERK IC50; for SW480 (Ymin %): lowest value of the pERK IC50 curve
Experimental: as §1, §2, §3, §4, §5, §6, §7

BRAF = target: T1, BRAF (Homo sapiens, UniProt P15056); assay: BRAF kinase activity assay (ADP-Glo); assay type: biochemical; settings: Table 2
T1 construct: GST; purchased Millipore Sigma B4062-10UG
Experimental: (§8) Compound preparation: solid samples of each substances in 1dram vials were suspended in DMSO (Fisher Scientific) at a stock concentration of 20 mM. Stocks were kept at −20° C. and protected from light. If solubility of the compound at 20 mM appeared to be an issue, the initial concentration of the DMSO stock was changed to 10 mM or 5 mM.
(§9) In vitro enzymatic reactions were used for evaluating compounds intrinsic activity against BRAF, CRAF and ARAF. For BRAF and CRAF, 0.375 nM of purified GST-tagged kinases (cat #B4062-10UG and cat #R1656-10UG respectively from Millipore Sigma) were incubated with 75 nM of kinase-dead MEK1 substrate (cat #40075; BPS Bioscience) in the presence of 10 μM of Ultrapure ATP (cat #V9102; Promega; part V915A) with and without the test compound in a buffer containing 50 mM HEPES pH 7.5, 10 mM MgCl2, 1 mM EDTA, 0.01% Brij-35 and 2 mM DTT. Separate reactions were performed with the MEK1 substrate and ATP as a blank control. ARAF, kinase reactions were rigorously the same with the exception that kinase concentration was raised to 3.75 nM (cat #1768-0000-1; Reaction Biology).
(§10) For compound treatment, 5 μL/well of test substance solution are placed in a 384-well proxyplate (Perkin Elmer) and mixed with 2× concentrated kinase reactions. The dilution series is selected so that nine concentrations cover a range from 100 nM to 0.01 nM. […] The final concentration of DMSO in the assay is set at 0.05%.
(§11) BRAF and CRAF kinase reactions were carried out for a total of 2 hours at 30° C. and then stopped by ½ dilution in ADP-Glo Reagent (cat #V9102; Promega; part V912C). Reactions were then incubated for 1 h at room temperature before addition of one volume of Kinase Detection Reagent (cat #V9102; Promega; part V917A). Plates were then equilibrated at room temperature for 30 minutes before detection of luminescence on a Synergy Neo2 plate reader (Biotek). The effect of each compound dilution on BRAF and CRAF kinase activity was expressed as % inhibition and calculated as follows. First, the internal 100% inhibition control (average of luminescence in kinase reactions comprising kinase dead MEK1 substrate alone) was subtracted from each data point. The average of DMSO (vehicle) controls (set as 0% inhibition) was established and used to calculate % inhibition:
(§12) IC50 values were obtained by plotting the kinase inhibition values and fitting the dose-activity curves using a log(agonist) versus response−variable slope (four parameters) function using either GraphPadPrism (V7.0) or Dotmatics Screening Ultra platform. Standards included in the ARAF kinase assay were Belvarafenib (MedChem Express cat #HY-109080; CAS #1446113-23-0), LXH254 (MedChem Express cat #HY-112089; CAS #1800398-38-2) and BGB283 (cat #HY-18957; CAS #1446090-79-4).

CRAF = CRAF (Homo sapiens, UniProt P04049); assay: CRAF kinase activity assay (ADP-Glo); assay type: biochemical
Experimental: as §8, §9, §10, §11, §12

T1 sequence (P15056 whole entry): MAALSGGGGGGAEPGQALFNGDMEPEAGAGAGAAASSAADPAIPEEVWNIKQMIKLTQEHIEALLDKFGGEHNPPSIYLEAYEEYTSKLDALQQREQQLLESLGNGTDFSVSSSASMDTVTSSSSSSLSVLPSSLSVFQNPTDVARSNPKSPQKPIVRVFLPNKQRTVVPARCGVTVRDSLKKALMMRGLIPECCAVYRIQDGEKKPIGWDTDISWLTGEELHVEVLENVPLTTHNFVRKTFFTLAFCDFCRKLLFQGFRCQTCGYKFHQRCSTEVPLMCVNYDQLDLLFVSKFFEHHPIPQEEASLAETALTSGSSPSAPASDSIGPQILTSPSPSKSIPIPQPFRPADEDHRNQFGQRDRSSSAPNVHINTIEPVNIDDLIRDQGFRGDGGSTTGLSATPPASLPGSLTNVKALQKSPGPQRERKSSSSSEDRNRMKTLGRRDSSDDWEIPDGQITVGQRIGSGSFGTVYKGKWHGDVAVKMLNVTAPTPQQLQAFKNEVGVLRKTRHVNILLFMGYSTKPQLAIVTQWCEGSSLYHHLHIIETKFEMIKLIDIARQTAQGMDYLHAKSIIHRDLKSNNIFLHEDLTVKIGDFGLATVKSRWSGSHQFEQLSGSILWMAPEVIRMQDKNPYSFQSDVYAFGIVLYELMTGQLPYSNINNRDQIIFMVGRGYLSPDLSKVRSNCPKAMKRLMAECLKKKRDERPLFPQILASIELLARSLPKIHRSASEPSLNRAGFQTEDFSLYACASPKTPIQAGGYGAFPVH
CRAF, sequence (P04049 whole entry): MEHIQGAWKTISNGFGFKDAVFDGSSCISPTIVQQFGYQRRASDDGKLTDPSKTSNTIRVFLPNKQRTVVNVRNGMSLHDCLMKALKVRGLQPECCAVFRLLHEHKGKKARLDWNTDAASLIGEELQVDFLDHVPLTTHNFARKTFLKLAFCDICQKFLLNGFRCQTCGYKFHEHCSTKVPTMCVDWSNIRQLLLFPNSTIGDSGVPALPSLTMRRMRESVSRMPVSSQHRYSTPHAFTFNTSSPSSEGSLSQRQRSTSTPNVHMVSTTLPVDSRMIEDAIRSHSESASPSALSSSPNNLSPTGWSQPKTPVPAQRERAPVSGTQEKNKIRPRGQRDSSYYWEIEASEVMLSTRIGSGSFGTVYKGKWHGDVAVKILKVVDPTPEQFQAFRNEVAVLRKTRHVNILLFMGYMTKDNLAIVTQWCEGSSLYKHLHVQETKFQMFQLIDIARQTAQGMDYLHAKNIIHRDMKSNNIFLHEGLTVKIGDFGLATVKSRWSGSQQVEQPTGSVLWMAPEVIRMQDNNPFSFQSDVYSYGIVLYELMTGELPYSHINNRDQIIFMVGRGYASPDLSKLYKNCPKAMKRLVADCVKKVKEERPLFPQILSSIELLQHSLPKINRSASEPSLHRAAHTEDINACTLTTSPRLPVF

| SMILES | IC50 (HCT116 pERK; Table 3, 1 h treatment) | HCT116 (Ymin %) (HCT116 pERK; Table 3) | IC50 (SW480 pERK; Table 3, 1 h treatment) | SW480 (Ymin %) (SW480 pERK; Table 3) | further results |
| --- | --- | --- | --- | --- | --- |
| CO[C@@H]1CCN(S(=O)(=O)Nc2ccc(F)c(Nc3ncnc4cnc(-n5ccc6ccccc65)nc34)c2F)C1 [Example 68] | 1000 to 10000 nM | 17% | 1000 to 10000 nM | 0% | – |
| COCC1CCN(S(=O)(=O)Nc2ccc(F)c(Nc3ncnc4cnc(-n5cnc6ccccc65)nc34)c2F)C1 (centres unmarked) [Example 70] | 1000 to 10000 nM | 0% | 1000 to 10000 nM | 1% | – |
| CO[C@@H]1CCN(S(=O)(=O)Nc2ccc(F)c(Nc3ncnc4cnc(-n5ccc6cccnc65)nc34)c2F)C1 [Example 71] | 1000 to 10000 nM | 8% | 1000 to 10000 nM | −4% | – |
| CO[C@@H]1CCN(S(=O)(=O)Nc2ccc(F)c(Nc3ncnc4cnc(-n5nnc6ccccc65)nc34)c2F)C1 [Example 72] | 1000 to 10000 nM | 20% | 1000 to 10000 nM | 1% | – |
| CC1CCN(S(=O)(=O)Nc2ccc(F)c(Nc3ncnc4cnc(-n5cnc6ccccc65)nc34)c2F)C1 (centres unmarked) [Example 73] | 1000 to 10000 nM | −2% | 1000 to 10000 nM | 7% | – |
| O=S(=O)(Nc1ccc(F)c(Nc2ncnc3cnc(-n4cnc5ccccc54)nc23)c1F)N1CC2CC2C1 (centres unmarked) [Example 74] | 1000 to 10000 nM | −3% | 1000 to 10000 nM | −7% | – |
| O=S(=O)(Nc1ccc(F)c(Nc2ncnc3cnc(-n4cnc5ccccc54)nc23)c1F)N1CCC(CCl)C1 (centres unmarked) [Example 75] | 1000 to 10000 nM | −10% | 1000 to 10000 nM | −6% | – |
| CCC1CCN(S(=O)(=O)Nc2ccc(F)c(Nc3ncnc4cnc(-n5cnc6ccccc65)nc34)c2F)C1 (centres unmarked) [Example 76] | 1000 to 10000 nM | −1% | 1000 to 10000 nM | −9% | – |
| O=S(=O)(Nc1ccc(F)c(Nc2ncnc3cnc(-n4cnc5ccccc54)nc23)c1F)N1CCCC1 [Example 77] | 1000 to 10000 nM | −4% | 1000 to 10000 nM | −4% | – |
| O=S(=O)(Nc1ccc(F)c(Nc2ncnc3cnc(-n4cnc5ccccc54)nc23)c1F)N1CCC(OC(F)F)C1 (centres unmarked) [Example 78] | 1000 to 10000 nM | 6% | 500 to 1000 nM | 10% | – |
| COc1ccc(S(=O)(=O)Nc2ccc(F)c(Nc3ncnc4cnc(-n5cnc6c(N)cccc65)nc34)c2F)c(F)c1 [Example 79] | 500 to 1000 nM | −6% | < 500 nM | −2% | – |
| COc1ccc(S(=O)(=O)Nc2ccc(F)c(Nc3ncnc4c(N)nc(-n5cnc(C)c5C)nc34)c2F)cc1 [Example 85] | – | – | – | – | IC50 (HCT116 pERK; Table 4, 1 h treatment): 10000 to 30000 nM; HCT116 (Ymin %) (HCT116 pERK; Table 4): 8%; IC50 (SW480 pERK; Table 4, 1 h treatment): 1000 to 10000 nM; SW480 (Ymin %) (SW480 pERK; Table 4): 4% |
| COc1ccc(S(=O)(=O)Nc2ccc(F)c(Nc3ncnc4c(N)nc(-n5cnc(C)c5C)nc34)c2F)c(C)c1 [Example 86] | – | – | – | – | IC50 (HCT116 pERK; Table 4, 1 h treatment): 1000 to 10000 nM; HCT116 (Ymin %) (HCT116 pERK; Table 4): 8%; IC50 (SW480 pERK; Table 4, 1 h treatment): 1000 to 10000 nM; SW480 (Ymin %) (SW480 pERK; Table 4): 3% |
| COc1ccc(S(=O)(=O)Nc2ccc(F)c(Nc3ncnc4cnc(SC)nc34)c2Cl)cc1 [Example 89] | – | – | – | – | IC50 (HCT116 pERK; HCT116 cells, pERK): 10000 to 30000 nM; HCT116 pERK % Ymin (lowest value of the IC50 curve) (HCT116 pERK; HCT116 cells, value in brackets, Ymin above −20% = minimal or no paradoxical induction): −5%; IC50 (SW480 pERK; SW480 cells, pERK): 10000 to 30000 nM; SW480 pERK % Ymin (lowest value of the IC50 curve) (SW480 pERK; SW480 cells, value in brackets, Ymin above −20% = minimal or no paradoxical induction): 3.5% |
| CSc1ncc2ncnc(Nc3c(F)ccc(NS(=O)(=O)c4cccc(F)c4C)c3F)c2n1 [Example 90] | – | – | – | – | IC50 (BRAF): 1 to 10 nM; IC50 (HCT116 pERK; Homo sapiens, HCT-116, Table 2, 1 h treatment): 1000 to 10000 nM |
| COc1ccc(S(=O)(=O)Nc2ccc(F)c(Nc3ncnc4cnc(SC)nc34)c2F)c(C)c1F [Example 91] | – | – | – | – | IC50 (BRAF): > 10 nM; IC50 (CRAF; Table 2): 10 to 50 nM; IC50 (HCT116 pERK; Table 2, 1 h treatment): 1000 to 10000 nM; HCT116 (Ymin %) (HCT116 pERK; Table 2): −8% |
| COc1ccc(S(=O)(=O)Nc2ccc(F)c(Nc3ncnc4cnc(SC)nc34)c2F)c(C)c1Cl [Example 92] | – | – | – | – | IC50 (BRAF): 1 to 10 nM; IC50 (HCT116 pERK; Table 2, 1 h treatment): 1000 to 10000 nM; HCT116 (Ymin %) (HCT116 pERK; Table 2): −12% |
| Cc1c(F)cccc1S(=O)(=O)Nc1ccc(F)c(Nc2ncnc3cnc(-n4nc(C(=O)N5CCC(O)CC5)c5ccccc54)nc23)c1F [Example 108] | 1000 to 10000 nM | −7.0% | – | – | IC50 (CRAF; Table 3): 10 to 50 nM |
